Consider one molecule from patent US20250204530A1, “USE OF CAROTENIOD COMPOSITION FOR NEMATODE CONTROL” (IDAI NATURE, S.L., priority 2022, published 2025).

In this assay the test system is Phytopathogenic nematodes (Helicotylenchus and Hemicycliophora). Nature of the assay: NEPOT test in soil pots: full formulation, co-formulants, lutein alone (Example 14). Particulars: 20 mL/pot, 7 DAA; for number of nematodes in soil (living individuals, Baermann): 320 individuals per pot. Type of assay: in vivo. An excerpt:
The purpose of this test was to evaluate the efficacy of the products coded as P1, P2 and P3 of the company IDAI NATURE against a mixture of phytopathogenic nematodes by the company NEVAL.
This study evaluates the behaviour under controlled conditions, in soil (NEPOT test)* of a battery of products against a mixture of phytopathogenic nematodes.
This study consists of 3 compositions, each of them at 2 doses and a control without treatment.
The juveniles were obtained from a freshly extracted sample of roots of sports lawns.
It is based on pots or glasses with the right amount of 100 mL for a quantification per sample.
• Product 1: N-09-04—Full formulation • Product 2: Co-formulant package (without A.I.)—(sunflower oil+tensioactives polysorbates 20, 80 and 85+butyl glycol+TBHQ+water) • Product 3: The Active ingredient alone—Lutein
The trial was carried out laboratory in Xilxes—Castelon—Spain—under controlled conditions and plant pathogenic nematodes in soil in a volume of 100 mL per pot. The three replicates per treatment were worked in 100 mL pots of soil with 320 plant pathogenic nematodes in each pot. • Pest: Phytopathogenic nematodes (Helicotylenchus and Hemicycliophora) • Innoculum quantity: 320 individuals per experimental unit • Substract: Sandy soil • Application: Manual—20 mL/pot • Design: Randomized Complete Block (RCB)—3 replicates per treatment • Equipment: Manual application: with micropipette and MAT 09.1 balance • Application code: A=28/06/2021—preparation+application A • Extraction=05/07/2021 (7 DAA according Baermann) • Quantification=06/07/2021
Products 1 (N-09-04 full formulation) and product 2 (the full formulation without the Lutein) were mixed with water, while product 3 (Lutein alone—active ingredient), difficult miscibility was deposited on the ground, adding the water later and mixing everything in the soil with a teaspoon shaking for 30 seconds each replica.
After the study carried out under laboratory conditions, each of the soil samples was extracted using the Baermann funnel procedure for 24 hours and then quantified under a biological microscope.
The Baermann procedure has the particular option of extracting only those individuals that have mobility, that is, that are alive, so the result is extrapolated to living individuals.

Turning to `CC1=C[C@H](O)CC(C)(C)[C@H]1/C=C/C(C)=C/C=C/C(C)=C/C=C/C=C(C)/C=C/C=C(C)/C=C/C1=C(C)C[C@@H](O)CC1(C)C` [Product 3, Lutein], the “efficacy / control (in brackets)” value amounted to 78.4% (0.375 mL/L), 77.5% (0.563 ml/L), 4.2% (5 ml/L) and 40.8% (7.5 ml/L). The “number of nematodes in soil (living individuals, Baermann)” value came out at 68.0 (0.375 mL/L) and 71.0 (0.563 ml/L).
